For one data set, the target named is LasB (Pseudomonas aeruginosa (strain ATCC 15692 / DSM 22644 / CIP 104116 / JCM 14847 / LMG 12228 / 1C / PRS 101 / PAO1), UniProt P14756). In words: In vitro LasB activity assay (fluorogenic substrate). It is filed as biochemical. The conditions noted are these: LasB 0.3 nM, substrate 150 μM, mean ± SD. In outline: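 LasB (0.3 nM) preincubated 15 min at 37 °C with compound, then 150 µM Abz-Ala-Gly-Leu-Ala-p-nitrobenzylamide added in 50 mM Tris pH 7.2, 2.5 mM CaCl2, 0.075% Pluronic F-127, 5% DMSO. Fluorescence (ex 340, em 415 nm) followed 60 min at 37 °C. IC50 from blank-corrected v/v0 slopes, nonlinear regression, Hill slope fixed at 1.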
LasB, sequence (P14756 198-498): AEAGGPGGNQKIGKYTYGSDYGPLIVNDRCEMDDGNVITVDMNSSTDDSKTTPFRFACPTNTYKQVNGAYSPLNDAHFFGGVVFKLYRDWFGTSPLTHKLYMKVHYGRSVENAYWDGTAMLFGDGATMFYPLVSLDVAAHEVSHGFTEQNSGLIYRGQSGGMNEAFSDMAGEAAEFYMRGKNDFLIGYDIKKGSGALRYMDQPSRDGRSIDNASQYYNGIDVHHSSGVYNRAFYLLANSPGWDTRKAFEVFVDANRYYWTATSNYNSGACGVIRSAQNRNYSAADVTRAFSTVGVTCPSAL

For another data set, the target named is MMP1 (Homo sapiens (Human), UniProt P03956). The data set can be described thus: Selectivity assay: inhibition of MMPs. Type of data set: biochemical. The method, then: (§1) MMPs-1, -2, -3, -7, -8 and -14 along with the SensoLyte 520 Generic MMP Activity Kit*Fluorimetric* were purchased from AnaSpec (Fremont, CA, USA). The assay was performed as described previously (Schönauer E, Kany A M, Haupenthal J, Hüsecken K, Hoppe I J, Voos K, et al. Discovery of a Potent Inhibitor Class with High Selectivity toward Clostridial Collagenases. J Am Chem Soc. 2017 Sep. 13; 139(36):12696-703) using batimastat as a positive control according to the guidelines of the manufacturer.
MMP1, sequence (P03956 100-469): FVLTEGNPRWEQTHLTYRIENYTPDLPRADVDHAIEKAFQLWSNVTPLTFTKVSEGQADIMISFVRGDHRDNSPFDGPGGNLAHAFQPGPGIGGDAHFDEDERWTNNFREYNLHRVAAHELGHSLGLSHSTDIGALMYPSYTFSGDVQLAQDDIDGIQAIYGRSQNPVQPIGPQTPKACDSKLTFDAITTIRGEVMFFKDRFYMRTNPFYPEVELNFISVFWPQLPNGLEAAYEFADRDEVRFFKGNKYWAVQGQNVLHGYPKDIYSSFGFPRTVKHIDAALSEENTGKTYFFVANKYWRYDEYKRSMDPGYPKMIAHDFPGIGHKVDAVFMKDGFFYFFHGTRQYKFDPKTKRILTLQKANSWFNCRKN

Another data set concerns the target MMP2 (Homo sapiens (Human), UniProt P08253). The data set can be described thus: Selectivity assay: inhibition of MMPs. Type of data set: biochemical. The method, then: as §1
The target of the next data set is MMP3 (Homo sapiens (Human), UniProt P08254). In words: Selectivity assay: inhibition of MMPs. It is filed as biochemical. The method, then:
as §1

In the next data set the target is HDAC3 (Homo sapiens (Human), UniProt O15379). In words: HDAC inhibition. As to conditions: read-out: Selectivity IC50 HDAC3. It is filed as biochemical. As for the experimental part: HDAC3 and HDAC8 Inhibitor Screening Assay kits were purchased from Sigma-Aldrich. The assay was performed according to the guidelines of the manufacturer using trichostatin as a positive control. Fluorescence signals were measured in a CLARIOstar plate reader (BMG Labtech).
HDAC3, sequence (O15379 whole entry, looked up): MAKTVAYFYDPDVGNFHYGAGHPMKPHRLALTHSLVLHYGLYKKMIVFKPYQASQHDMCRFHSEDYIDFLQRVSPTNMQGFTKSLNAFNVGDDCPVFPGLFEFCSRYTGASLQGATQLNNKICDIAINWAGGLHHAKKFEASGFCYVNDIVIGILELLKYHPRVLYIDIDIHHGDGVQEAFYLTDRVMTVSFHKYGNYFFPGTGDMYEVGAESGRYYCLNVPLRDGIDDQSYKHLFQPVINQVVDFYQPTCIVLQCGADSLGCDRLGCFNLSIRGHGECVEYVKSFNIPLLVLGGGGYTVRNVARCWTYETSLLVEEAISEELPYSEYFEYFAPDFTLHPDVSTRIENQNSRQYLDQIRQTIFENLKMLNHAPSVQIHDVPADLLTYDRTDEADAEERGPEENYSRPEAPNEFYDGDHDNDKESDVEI
HDAC3, sequence (Q9Y618 whole entry partner, looked up): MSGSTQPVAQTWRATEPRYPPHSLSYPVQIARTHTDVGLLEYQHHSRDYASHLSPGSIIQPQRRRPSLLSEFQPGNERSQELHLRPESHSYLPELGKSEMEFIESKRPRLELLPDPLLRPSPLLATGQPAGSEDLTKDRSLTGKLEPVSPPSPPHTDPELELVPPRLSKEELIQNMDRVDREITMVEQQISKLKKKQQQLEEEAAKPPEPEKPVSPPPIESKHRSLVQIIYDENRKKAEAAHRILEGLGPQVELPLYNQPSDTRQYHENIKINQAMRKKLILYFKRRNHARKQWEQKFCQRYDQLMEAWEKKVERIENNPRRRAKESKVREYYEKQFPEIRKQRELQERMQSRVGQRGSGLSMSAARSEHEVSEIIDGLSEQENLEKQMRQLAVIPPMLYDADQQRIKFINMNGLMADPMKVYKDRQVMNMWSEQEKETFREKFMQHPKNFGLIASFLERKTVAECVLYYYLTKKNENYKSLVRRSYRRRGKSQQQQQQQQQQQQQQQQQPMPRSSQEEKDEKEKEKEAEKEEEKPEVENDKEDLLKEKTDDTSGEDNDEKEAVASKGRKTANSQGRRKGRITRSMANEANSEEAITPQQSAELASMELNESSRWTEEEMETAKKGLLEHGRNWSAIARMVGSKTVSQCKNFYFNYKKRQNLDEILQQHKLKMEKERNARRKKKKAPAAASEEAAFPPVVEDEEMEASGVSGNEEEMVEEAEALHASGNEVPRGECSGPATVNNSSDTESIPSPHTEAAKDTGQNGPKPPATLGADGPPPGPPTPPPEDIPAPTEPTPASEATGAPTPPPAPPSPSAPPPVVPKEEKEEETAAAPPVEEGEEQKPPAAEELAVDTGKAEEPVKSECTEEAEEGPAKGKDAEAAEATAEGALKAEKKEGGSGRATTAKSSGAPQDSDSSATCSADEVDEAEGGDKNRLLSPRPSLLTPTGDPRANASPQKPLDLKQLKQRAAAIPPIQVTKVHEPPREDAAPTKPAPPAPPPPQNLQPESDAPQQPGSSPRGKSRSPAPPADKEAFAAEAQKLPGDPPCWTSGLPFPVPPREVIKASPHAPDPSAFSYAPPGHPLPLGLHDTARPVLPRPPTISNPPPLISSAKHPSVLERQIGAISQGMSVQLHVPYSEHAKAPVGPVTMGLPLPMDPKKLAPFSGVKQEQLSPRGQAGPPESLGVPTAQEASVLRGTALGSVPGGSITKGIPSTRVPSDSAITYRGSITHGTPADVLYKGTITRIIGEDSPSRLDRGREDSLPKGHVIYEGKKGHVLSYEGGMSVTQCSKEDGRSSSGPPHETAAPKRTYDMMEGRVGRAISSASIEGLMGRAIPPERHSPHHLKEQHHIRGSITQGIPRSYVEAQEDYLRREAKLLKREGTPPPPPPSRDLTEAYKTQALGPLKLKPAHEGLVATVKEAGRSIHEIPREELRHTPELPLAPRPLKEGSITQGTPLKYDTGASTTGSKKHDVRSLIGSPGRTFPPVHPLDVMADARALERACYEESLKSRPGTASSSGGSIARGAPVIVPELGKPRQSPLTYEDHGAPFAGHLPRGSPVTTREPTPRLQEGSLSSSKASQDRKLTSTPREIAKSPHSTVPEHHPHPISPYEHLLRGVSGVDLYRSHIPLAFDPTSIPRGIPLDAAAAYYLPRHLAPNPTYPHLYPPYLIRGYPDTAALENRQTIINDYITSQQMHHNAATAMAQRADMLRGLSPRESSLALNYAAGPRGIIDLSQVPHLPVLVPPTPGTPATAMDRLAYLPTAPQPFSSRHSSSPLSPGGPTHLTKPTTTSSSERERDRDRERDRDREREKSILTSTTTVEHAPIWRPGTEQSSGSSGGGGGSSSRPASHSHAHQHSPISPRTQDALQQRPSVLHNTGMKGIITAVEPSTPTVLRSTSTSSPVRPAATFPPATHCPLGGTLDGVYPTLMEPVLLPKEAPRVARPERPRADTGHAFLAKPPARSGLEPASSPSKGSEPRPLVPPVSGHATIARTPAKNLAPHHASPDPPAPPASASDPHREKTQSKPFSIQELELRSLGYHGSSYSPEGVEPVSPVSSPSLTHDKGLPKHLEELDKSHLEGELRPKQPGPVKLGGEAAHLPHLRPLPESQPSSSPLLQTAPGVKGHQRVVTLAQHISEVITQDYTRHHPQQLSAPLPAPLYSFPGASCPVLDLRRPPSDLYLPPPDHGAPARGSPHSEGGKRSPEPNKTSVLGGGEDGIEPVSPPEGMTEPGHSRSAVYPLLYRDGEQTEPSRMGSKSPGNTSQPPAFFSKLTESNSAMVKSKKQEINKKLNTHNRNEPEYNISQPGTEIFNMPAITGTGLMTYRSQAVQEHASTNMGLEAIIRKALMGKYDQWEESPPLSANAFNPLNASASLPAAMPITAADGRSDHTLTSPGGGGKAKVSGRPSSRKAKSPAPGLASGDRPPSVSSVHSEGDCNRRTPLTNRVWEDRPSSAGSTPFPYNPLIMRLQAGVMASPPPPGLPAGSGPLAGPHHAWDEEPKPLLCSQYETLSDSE

The next data set in a line: Cytotoxicity assay. It is filed as cell-based. As to conditions: human. As for the experimental part:
HepG2, HEK293 or A549 cells (2×10^5 cells per well) were seeded in 24-well, flat-bottomed plates. Culturing of cells, incubations, and OD measurements were performed as described previously (Int. J. Cancer 2007, 121, 206-210). Twenty-four hours after seeding the cells, the incubation was started by the addition of test compound in a final DMSO concentration of 1%. The living cell mass was determined after 48 h. At least two independent measurements were performed for each compound.

For data set [1], the system named is A549 cells challenged with P. aeruginosa PAO1 culture supernatant. The data set can be described thus: A549 cell-based assay, LasB-related cytotoxicity (MTT). Also on record: species or system human. The conditions noted are these: 10% (v/v) PAO1 csn. The method, then: The human lung adenocarcinoma cell line (A549) was cultured in Dulbecco's Modified Eagle Medium (DMEM), containing 10% Fetal Bovine Serum (FBS) and 1% penicillin-streptomycin mixture. Cells were maintained according to standard cell culture procedures.
To conduct the assay, 2.5-3.5*10^3 cells/well were seeded into a flat bottom 96-well plate (Corning™ Costar™) and incubated at 37° C.+5% CO2 for 24 hours. On the following day, several concentrations of the compound 169 were tested against 10% (v/v) Pseudomonas aeruginosa PAO1 (DSM 22644, ATCC 15692) culture supernatant diluted in DMEM starting from 1.25 μM. The compound was initially dissolved in 99.9% Dimethyl sulfoxide (DMSO) and a final assay concentration of 0.5% (v/v) was applied to minimize the proteolytic effect of DMSO on the bacterial culture supernatant. In addition, cells were challenged with 10% (v/v) of AlasB PAO1 to confirm the toxic effect derived from LasB, and DMEM was included as a control without any treatment. Plates were incubated at 37° C.+5% CO2 for 24 hours prior to the MTT assay.
The graph represents three independent experiments ±SD. One-way ANOVA statistical analysis was performed following Dunnett's multiple comparisons test, comparing the mean value of each concentration to the mean value of PAO1 without any treatment with compounds (**** p≤0.0001, ** p≤0.01, * p≤0.05).

Data set [2] concerns P. aeruginosa PAO1 (strain DSM22644). The data set can be described thus: G. mellonella larvae survival after PAO1 infection. It is filed as in vivo. The conditions noted are these: for Final survival percentage of larvae: 3 CFU/Larva, 24 h. As for the experimental part: Bacteria were grown overnight, diluted to OD600 of 0.025 in 10 ml medium, and grown for approx. 2 hours at 37° C. inside a shaker incubator until the OD600 of 1.8-2 is reached. The culture was then serially diluted in sterile PBS (pH=7.2). Bacterial densities of 3000, 300, 30, and 3 CFU/Larva were selected for injection into groups of 15 larvae. A total volume of 5 μl was injected into each larva via the hindmost left proleg by using a syringe pump and Sterican® needles (0.30×12 mm, 30G×½). In addition, control group without injection for the quality of the larvae and a PBS control to monitor the effect of the injection were included in the experiment. All test groups and control groups were incubated at 37° C. in the dark and monitored every 2 hours from 17 hours post-infection.
In vivo evaluation of compounds 162 and 169. Bacteria were cultured and prepared according to the previous section. Final concentrations of 50 μM, 25 μM, and 12.5 μM in combination with 3 CFU/Larva were injected into groups of 15 larvae. In addition to no injection and PBS controls, one group was infected with 3 CFU/Larva and considered the negative control. All test groups and control groups were incubated at 37° C. in the dark and monitored every 2 hours from 17 hours post-infection.

SMILES strings stand for the structures.

By IC50 is commonly meant the concentration that inhibits the measured activity by half.

MMP3, sequence (P08254 100-477): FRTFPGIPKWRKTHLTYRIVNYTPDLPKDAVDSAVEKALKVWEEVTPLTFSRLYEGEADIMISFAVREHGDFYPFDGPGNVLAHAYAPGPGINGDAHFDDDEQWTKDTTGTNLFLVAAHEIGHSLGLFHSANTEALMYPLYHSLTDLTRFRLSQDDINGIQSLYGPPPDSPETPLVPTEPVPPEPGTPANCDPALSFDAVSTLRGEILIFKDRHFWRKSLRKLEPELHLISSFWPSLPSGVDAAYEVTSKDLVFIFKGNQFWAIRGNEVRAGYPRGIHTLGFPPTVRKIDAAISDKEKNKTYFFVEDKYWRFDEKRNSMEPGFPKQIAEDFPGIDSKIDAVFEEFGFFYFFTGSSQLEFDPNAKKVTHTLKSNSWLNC
MMP2, sequence (P08253 110-660): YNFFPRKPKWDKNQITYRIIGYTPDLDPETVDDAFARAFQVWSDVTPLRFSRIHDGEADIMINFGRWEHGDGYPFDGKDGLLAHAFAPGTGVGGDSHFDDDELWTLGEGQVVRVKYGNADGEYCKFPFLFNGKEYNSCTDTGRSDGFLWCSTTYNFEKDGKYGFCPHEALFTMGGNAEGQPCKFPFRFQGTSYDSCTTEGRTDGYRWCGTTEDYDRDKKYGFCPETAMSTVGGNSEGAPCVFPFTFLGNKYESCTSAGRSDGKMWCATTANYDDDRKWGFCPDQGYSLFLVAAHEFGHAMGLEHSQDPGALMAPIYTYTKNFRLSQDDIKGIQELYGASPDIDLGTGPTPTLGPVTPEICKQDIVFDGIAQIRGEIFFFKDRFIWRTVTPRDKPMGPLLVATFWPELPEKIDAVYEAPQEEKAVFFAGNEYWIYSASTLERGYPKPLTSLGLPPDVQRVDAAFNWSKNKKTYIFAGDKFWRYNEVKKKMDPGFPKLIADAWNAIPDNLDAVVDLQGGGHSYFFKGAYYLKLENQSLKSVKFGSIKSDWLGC

In the case of `CC(C)CC(C(=O)NO)C(=O)Nc1ccc(Cn2cc(CNS(=O)(=O)CC(C)C)nn2)cc1` (centres unmarked) [Compound 169, 2-(Hydroxycarbamoyl)-N-[4-[[4-[(isobutylsulfonylamino)methyl]triazol-1-yl]methyl]phenyl]-4-methyl-pentanamide], the IC50 on LasB was 0.0052 ± 0.0002 µM; against MMP1 it was more than 100 µM; on MMP2 it was more than 100 µM; on MMP3 it was more than 100 µM; on HDAC3, more than 100 µM. For the same compound, the IC50 at 48 h in the data set “Cytotoxicity assay” (A549 cells), in the data set “Cytotoxicity assay” (HEK293 cells) and in the data set “Cytotoxicity assay” (HepG2 cells) was more than 100 µM in each case. Besides, in data set [1] (24 h, MTT), the “Reduction of LasB-related cytotoxicity in A549 cells” value is “excellent potency”. For the same compound, in data set [1] (from 1.25 μM), the “Dose-response of LasB inhibition in A549 cells” value was “Dose-dependent inhibition of LasB in a low micromolar to nanomolar range”. Moreover, the “Final survival percentage of larvae” value was 53% in data set [2] (12.5 μM), 73% in data set [2] (25 μM) and 82% in data set [2] (50 μM). Besides, the “Improvement in survival of larvae compared to negative control” value in data set [2] (50 μM, vs 3 CFU/Larva without treatment) is reported as 40%.

The values are drawn from patent US20250170104A1, “INHIBITORS OF PSEUDOMONAS AERUGINOSA VIRULENCE FACTOR Lasß” (priority 2022, published 2025).
